Reference: article PMC5451150 (Journal of Medicinal Chemistry, 2016)

Tests used:
PRMT8 = PRMT8 (Homo sapiens, UniProt Q9NR22); test: Methyltransferase selectivity panel: PRMT8; type: biochemical; conditions: substrate Histone H4; top concentration 10 µM
NSD1 = NSD1 (Homo sapiens, UniProt Q96L73); test: Methyltransferase selectivity panel: NSD1; type: biochemical; conditions: substrate Nucleosomes; top concentration 10 µM
[1] = Plasma protein binding, rat; type: in vitro ADME
[2] = tested on: panel of fifty-four physiologically relevant receptors, transporters, and ion channels; test: Secondary pharmacology panel; conditions: at 10 μM; fifty-four targets
PRMT6 = PRMT6 (Homo sapiens, UniProt Q96LA8); conditions: substrate Histone H3; top concentration 10 µM
PRMT3 = PRMT3 (Homo sapiens, UniProt O60678); test: Methyltransferase selectivity panel: PRMT3; type: biochemical; conditions: substrate Histone H4; top concentration 10 µM
[3] = Plasma protein binding, mouse; type: in vitro ADME
[4] = Intrinsic clearance in mouse liver microsomes; type: in vitro ADME
PRMT1 = PRMT1 (Homo sapiens, UniProt Q99873); test: Methyltransferase selectivity panel: PRMT1; type: biochemical; conditions: substrate Histone H4; top concentration 10 µM
MLL2 = MLL2 (Homo sapiens, UniProt O14686); test: Methyltransferase selectivity panel: MLL2; type: biochemical; conditions: substrate Core Histone; top concentration 10 µM
MLL3 = MLL3 (Homo sapiens, UniProt Q8NEZ4); test: Methyltransferase selectivity panel: MLL3; type: biochemical; conditions: substrate Core Histone; top concentration 10 µM
[5] = Plasma protein binding, dog; type: in vitro ADME
NSD2 (E1099K) = NSD2 (E1099K) (Homo sapiens, UniProt O96028, E1099K); test: Methyltransferase selectivity panel: NSD2 (E1099K); type: biochemical; conditions: substrate Nucleosomes; top concentration 10 µM
PRMT4 = PRMT4 (Homo sapiens, UniProt Q86X55); test: Methyltransferase selectivity panel: PRMT4; type: biochemical; conditions: substrate Histone H3; top concentration 10 µM
SMYD2 = SMYD2 (Homo sapiens, UniProt Q9NRG4); test: Methyltransferase selectivity panel: SMYD2; type: biochemical; conditions: substrate Histone H4; top concentration 10 µM
SET1B = SET1B (Homo sapiens, UniProt Q9UPS6); test: Methyltransferase selectivity panel: SET1B; type: biochemical; conditions: substrate Core Histone; top concentration 10 µM
DOT1L = DOT1L (Homo sapiens, UniProt Q8TEK3); test: Methyltransferase selectivity panel: DOT1L; type: biochemical; conditions: substrate Nucleosomes; top concentration 10 µM
SUV39H2 = SUV39H2 (Homo sapiens, UniProt Q9H5I1); test: Methyltransferase selectivity panel: SUV39H2; type: biochemical; conditions: substrate Histone H3; top concentration 10 µM
MLL1 = MLL1 (Homo sapiens, UniProt Q03164); test: Methyltransferase selectivity panel: MLL1; type: biochemical; conditions: substrate Nucleosomes; top concentration 10 µM
PRMT5 = PRMT5 (Homo sapiens, UniProt O14744); test: Methyltransferase selectivity panel: PRMT5; type: biochemical; conditions: substrate Histone 2A; top concentration 10 µM
EZH2 C663S = target: T1, EZH2 C663S (Homo sapiens, UniProt O75530+Q15910, C663S); test: EZH2 C663S incorporated into reconstituted PRC2, potency; type: biochemical; conditions: single substitution cysteine to serine at position 663, reconstituted PRC2
T1 construct: made in house

[6] = tested on: cytochrome P450 enzymes 1A2, 2C9, 2C8, 2D6, and 3A4; test: Time-dependent inhibition (TDI) of cytochrome P450 enzymes; type: in vitro ADME
DNMT1 = DNMT1 (Homo sapiens, UniProt P26358); test: Methyltransferase selectivity panel: DNMT1; type: biochemical; conditions: substrate Poly dl-dC; top concentration 10 µM
DNMT3b = DNMT3b (Homo sapiens, UniProt Q9UBC3); test: Methyltransferase selectivity panel: DNMT3b; type: biochemical; conditions: substrate Lambda DNA; top concentration 10 µM
DNMT3a = DNMT3a (Homo sapiens, UniProt Q9Y6K1); test: Methyltransferase selectivity panel: DNMT3a; type: biochemical; conditions: substrate Lambda DNA; top concentration 10 µM
MLL4 = test: Methyltransferase selectivity panel: MLL4; type: biochemical; conditions: substrate Core Histone; top concentration 10 µM
[7] = tested on: KARPAS-422 B-cell lymphoma xenograft; test: KARPAS-422 B-cell lymphoma xenograft efficacy and PK/PD in CB-17 SCID mice; conditions: for antitumor efficacy (in words): 160 mg/kg BID
G9a = G9a (Homo sapiens, UniProt Q96KQ7); test: Methyltransferase selectivity panel: G9a; type: biochemical; conditions: substrate Histone H3 (1-21); top concentration 10 µM
[8] = Dog pharmacokinetics (iv and po); type: in vivo; conditions: po 5 mg/kg, male beagle dogs
NSD2 = NSD2 (Homo sapiens, UniProt O96028); test: Methyltransferase selectivity panel: NSD2; type: biochemical; conditions: substrate Nucleosomes; top concentration 10 µM
[9] = Rat pharmacokinetics (iv and po); type: in vivo; conditions: po 25 mg/kg, male Sprague–Dawley rats
SUV420H1TV2 = SUV420H1TV2 (Homo sapiens, UniProt Q4FZB7); test: Methyltransferase selectivity panel: SUV420H1TV2; type: biochemical; conditions: substrate Nucleosomes; top concentration 10 µM
GLP = GLP (Homo sapiens, UniProt Q9H9B1); test: Methyltransferase selectivity panel: GLP; type: biochemical; conditions: substrate Histone H3 (1-21); top concentration 10 µM
PRDM9 = PRDM9 (Homo sapiens, UniProt Q9NQV7); test: Methyltransferase selectivity panel: PRDM9; type: biochemical; conditions: substrate Histone H3; top concentration 10 µM
SUV39H1 = SUV39H1 (Homo sapiens, UniProt O43463); test: Methyltransferase selectivity panel: SUV39H1; type: biochemical; conditions: substrate Histone H3; top concentration 10 µM
[10] = Plasma protein binding, human; type: in vitro ADME
SETD2 = SETD2 (Homo sapiens, UniProt Q9BYW2); test: Methyltransferase selectivity panel: SETD2; type: biochemical; conditions: substrate Histone H4; top concentration 10 µM
SET8 = SET8 (Homo sapiens, UniProt Q9NQR1); test: Methyltransferase selectivity panel: SET8; type: biochemical; conditions: substrate Nucleosomes; top concentration 10 µM
Chain of SET8 (Q9NQR1 whole entry): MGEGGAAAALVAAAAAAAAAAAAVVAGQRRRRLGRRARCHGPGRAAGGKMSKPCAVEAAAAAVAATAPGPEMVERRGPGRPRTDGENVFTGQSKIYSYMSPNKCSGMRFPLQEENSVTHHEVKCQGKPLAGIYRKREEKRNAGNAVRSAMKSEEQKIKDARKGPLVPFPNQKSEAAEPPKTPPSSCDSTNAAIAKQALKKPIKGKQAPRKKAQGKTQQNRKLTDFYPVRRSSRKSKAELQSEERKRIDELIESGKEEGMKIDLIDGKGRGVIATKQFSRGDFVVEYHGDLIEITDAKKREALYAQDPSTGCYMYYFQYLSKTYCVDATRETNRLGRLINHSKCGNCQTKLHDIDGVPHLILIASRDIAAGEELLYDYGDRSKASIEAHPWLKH

Chain of SUV420H1TV2 (Q4FZB7 1-393 isoform Q4FZB7-2): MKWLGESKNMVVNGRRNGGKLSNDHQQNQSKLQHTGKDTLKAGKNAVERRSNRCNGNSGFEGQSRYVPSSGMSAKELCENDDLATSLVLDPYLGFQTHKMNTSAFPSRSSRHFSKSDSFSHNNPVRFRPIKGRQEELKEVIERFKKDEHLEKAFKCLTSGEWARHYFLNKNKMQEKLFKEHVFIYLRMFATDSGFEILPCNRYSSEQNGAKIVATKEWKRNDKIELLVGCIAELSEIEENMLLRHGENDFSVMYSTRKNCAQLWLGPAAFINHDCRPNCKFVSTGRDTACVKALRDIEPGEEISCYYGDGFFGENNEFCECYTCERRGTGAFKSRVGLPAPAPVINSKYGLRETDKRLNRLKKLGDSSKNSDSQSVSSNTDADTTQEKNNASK
Chain of NSD2 (E1099K) (O96028 whole entry E1099K): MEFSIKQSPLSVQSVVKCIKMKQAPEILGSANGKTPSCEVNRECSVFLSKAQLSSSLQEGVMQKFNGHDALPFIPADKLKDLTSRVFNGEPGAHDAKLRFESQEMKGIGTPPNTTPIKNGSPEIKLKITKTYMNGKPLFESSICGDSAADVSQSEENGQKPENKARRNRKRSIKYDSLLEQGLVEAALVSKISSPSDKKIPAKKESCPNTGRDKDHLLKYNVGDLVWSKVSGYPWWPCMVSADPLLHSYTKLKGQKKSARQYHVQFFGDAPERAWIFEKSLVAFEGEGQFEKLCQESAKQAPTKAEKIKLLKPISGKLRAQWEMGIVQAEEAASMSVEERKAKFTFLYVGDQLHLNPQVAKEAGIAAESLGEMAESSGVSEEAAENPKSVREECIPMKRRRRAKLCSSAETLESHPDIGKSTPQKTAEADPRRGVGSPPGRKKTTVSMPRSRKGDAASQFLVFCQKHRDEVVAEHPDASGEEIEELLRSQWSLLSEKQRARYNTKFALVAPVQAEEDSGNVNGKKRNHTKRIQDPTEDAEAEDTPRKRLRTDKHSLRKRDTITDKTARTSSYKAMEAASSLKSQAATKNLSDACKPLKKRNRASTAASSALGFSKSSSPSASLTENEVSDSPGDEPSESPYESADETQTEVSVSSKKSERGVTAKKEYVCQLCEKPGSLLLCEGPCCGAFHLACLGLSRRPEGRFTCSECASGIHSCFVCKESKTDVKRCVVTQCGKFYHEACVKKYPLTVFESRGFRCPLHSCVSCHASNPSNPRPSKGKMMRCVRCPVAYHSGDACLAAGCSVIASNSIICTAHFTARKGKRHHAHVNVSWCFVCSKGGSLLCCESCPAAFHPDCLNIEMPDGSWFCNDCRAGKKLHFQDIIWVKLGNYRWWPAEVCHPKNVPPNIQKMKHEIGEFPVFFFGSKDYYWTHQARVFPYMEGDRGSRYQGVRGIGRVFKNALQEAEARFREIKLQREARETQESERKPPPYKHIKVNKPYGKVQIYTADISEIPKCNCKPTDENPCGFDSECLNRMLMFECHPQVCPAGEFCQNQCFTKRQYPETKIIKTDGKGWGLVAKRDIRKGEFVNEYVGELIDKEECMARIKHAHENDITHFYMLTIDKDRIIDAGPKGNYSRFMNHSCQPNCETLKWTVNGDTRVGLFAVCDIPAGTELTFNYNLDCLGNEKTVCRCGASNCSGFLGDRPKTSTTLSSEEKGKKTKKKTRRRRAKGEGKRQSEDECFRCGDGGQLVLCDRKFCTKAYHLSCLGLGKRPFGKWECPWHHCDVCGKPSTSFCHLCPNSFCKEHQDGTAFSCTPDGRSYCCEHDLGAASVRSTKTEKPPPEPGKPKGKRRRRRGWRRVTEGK
Chain of PRMT4 (Q86X55 whole entry): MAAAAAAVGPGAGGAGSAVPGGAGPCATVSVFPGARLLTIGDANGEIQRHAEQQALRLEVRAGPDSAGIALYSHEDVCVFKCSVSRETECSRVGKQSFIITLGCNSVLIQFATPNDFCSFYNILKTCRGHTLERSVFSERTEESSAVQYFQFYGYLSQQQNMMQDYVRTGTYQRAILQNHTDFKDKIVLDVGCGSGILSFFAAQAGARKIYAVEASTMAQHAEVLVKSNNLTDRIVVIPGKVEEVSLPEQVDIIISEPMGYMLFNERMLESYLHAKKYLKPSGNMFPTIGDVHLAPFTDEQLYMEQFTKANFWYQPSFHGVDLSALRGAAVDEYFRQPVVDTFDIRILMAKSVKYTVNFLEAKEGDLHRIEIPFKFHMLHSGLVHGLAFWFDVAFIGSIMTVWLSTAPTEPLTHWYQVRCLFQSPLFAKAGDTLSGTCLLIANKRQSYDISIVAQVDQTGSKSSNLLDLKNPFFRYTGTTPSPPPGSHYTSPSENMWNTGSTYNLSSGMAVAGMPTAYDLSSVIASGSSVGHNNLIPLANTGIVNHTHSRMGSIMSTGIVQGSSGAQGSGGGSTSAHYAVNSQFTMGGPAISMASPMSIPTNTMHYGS
Chain of SMYD2 (Q9NRG4 whole entry): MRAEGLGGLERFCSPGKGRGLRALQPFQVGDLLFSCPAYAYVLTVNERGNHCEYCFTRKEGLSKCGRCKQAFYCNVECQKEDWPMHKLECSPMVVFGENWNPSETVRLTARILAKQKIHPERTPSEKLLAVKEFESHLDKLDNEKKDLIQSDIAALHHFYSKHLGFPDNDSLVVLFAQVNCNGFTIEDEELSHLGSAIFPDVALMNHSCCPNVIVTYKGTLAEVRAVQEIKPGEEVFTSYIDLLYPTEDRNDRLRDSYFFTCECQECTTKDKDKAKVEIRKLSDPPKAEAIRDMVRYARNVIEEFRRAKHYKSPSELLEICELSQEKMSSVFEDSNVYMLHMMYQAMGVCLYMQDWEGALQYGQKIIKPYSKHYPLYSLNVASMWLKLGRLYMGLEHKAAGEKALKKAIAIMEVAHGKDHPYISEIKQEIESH
Chain of G9a (Q96KQ7 whole entry, species assumed): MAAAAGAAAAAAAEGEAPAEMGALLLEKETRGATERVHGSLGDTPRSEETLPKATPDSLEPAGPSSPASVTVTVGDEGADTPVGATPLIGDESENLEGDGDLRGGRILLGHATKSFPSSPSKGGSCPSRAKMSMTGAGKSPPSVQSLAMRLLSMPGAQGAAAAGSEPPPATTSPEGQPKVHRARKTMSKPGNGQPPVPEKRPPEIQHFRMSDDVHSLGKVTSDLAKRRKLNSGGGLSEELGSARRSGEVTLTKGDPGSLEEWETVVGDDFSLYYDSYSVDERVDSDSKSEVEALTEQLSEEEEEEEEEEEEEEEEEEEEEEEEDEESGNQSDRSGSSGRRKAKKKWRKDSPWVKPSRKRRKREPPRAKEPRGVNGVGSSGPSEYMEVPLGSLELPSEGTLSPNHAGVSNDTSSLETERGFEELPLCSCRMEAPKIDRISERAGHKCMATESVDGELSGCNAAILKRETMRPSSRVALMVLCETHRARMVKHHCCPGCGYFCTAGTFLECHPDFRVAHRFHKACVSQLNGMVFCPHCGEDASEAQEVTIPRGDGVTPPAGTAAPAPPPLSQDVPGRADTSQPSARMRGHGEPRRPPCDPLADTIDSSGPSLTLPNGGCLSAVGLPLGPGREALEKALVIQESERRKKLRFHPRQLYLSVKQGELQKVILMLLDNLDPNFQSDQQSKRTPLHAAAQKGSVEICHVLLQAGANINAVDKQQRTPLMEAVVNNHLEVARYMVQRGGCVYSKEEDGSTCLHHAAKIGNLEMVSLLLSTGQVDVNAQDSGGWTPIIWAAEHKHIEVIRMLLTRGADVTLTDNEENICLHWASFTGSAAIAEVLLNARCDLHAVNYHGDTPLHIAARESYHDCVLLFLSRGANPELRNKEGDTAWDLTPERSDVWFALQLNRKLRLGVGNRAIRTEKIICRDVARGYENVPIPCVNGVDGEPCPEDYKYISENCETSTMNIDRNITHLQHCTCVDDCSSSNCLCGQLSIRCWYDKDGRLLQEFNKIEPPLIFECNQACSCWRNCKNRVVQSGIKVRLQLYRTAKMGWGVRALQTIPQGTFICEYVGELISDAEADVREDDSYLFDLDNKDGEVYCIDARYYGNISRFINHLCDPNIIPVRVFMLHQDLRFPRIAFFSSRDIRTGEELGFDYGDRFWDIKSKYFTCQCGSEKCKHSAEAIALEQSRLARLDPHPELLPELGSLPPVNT
Chain of PRMT1 (Q99873 whole entry): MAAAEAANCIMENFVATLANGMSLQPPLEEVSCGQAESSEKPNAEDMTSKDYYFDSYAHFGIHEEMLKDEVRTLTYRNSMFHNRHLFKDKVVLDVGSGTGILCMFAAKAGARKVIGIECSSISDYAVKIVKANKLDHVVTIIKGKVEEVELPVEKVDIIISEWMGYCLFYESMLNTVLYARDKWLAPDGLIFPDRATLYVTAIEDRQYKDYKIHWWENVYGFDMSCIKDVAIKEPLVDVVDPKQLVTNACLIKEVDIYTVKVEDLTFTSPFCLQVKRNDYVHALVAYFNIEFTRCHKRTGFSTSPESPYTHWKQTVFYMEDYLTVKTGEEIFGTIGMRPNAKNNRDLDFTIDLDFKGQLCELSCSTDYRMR
Chain of NSD2 (O96028 whole entry): as the sequence (O96028 whole entry E1099K) above, with K1099E counted along it

For `COc1cc(C)[nH]c(=O)c1CNC(=O)c1c(C)n([C@H](C)C2CCN(CC(F)(F)F)CC2)c2ccccc12` [compound 13, (R)-N-((4-Methoxy-6-methyl-2-oxo-1,2-dihydropyridin-3-yl)methyl)-2-methyl-1-(1-(1-(2,2,2-trifluoroethyl)piperidin-4-yl)ethyl)-1H-indole-3-carboxamide], the “PRMT8 IC50” value (PRMT8) was “no inhibition or compound activity that could not be fit to an IC50 curve”, the “NSD1 IC50” value (NSD1) was “no inhibition or compound activity that could not be fit to an IC50 curve” and the PPB [1] was 89.9 % bound. The “inhibition of any target of the panel” value [2] was at most 50%, the “PRMT6 IC50” value (PRMT6) was “no inhibition or compound activity that could not be fit to an IC50 curve” and the “PRMT3 IC50” value (PRMT3) was “no inhibition or compound activity that could not be fit to an IC50 curve”. It also gave a PPB [3] of 97.9 % bound, a Clint [4] of 159 μL/min/mg protein and a microsomal CLint ([4]; mouse, liver microsomes) of over 100 µL/min/mg. For the same molecule, the “PRMT1 IC50” value (PRMT1) was “no inhibition or compound activity that could not be fit to an IC50 curve”, the “MLL2 IC50” value (MLL2) was “no inhibition or compound activity that could not be fit to an IC50 curve” and the “MLL3 IC50” value (MLL3) was “no inhibition or compound activity that could not be fit to an IC50 curve”. For the same molecule, the PPB ([5]; dog plasma) was 90.3 % bound, the fraction unbound ([5]; plasma, in vitro, dog, read-out: fu (fraction unbound to plasma protein)) was 0.089 and the “NSD2 (E1099K) IC50” value (NSD2 (E1099K)) was “no inhibition or compound activity that could not be fit to an IC50 curve”. For the same molecule, the “PRMT4 IC50” value (PRMT4) was “no inhibition or compound activity that could not be fit to an IC50 curve”, the “SMYD2 IC50” value (SMYD2) was “no inhibition or compound activity that could not be fit to an IC50 curve” and the “SET1B IC50” value (SET1B) was “no inhibition or compound activity that could not be fit to an IC50 curve”. The “DOT1L IC50” value (DOT1L) was “no inhibition or compound activity that could not be fit to an IC50 curve”, the “SUV39H2 IC50” value (SUV39H2) was “no inhibition or compound activity that could not be fit to an IC50 curve” and the “MLL1 IC50” value (MLL1) was “no inhibition or compound activity that could not be fit to an IC50 curve”. For the same molecule, the “PRMT5 IC50” value (PRMT5) was “no inhibition or compound activity that could not be fit to an IC50 curve”, the “potency in mutated EZH2 C663S (versus EZH2)” value (EZH2 C663S) was “decreased” and the “time-dependent inhibition (TDI) of cytochrome P450 enzymes” value [6] was “no time-dependent inhibition”. For the same molecule, the “DNMT1 IC50” value (DNMT1) was “no inhibition or compound activity that could not be fit to an IC50 curve”, the “DNMT3b IC50” value (DNMT3b) was “no inhibition or compound activity that could not be fit to an IC50 curve” and the “DNMT3a IC50” value (DNMT3a) was “no inhibition or compound activity that could not be fit to an IC50 curve”. For the same molecule, the “MLL4 IC50” value (MLL4) was “no inhibition or compound activity that could not be fit to an IC50 curve”, the “antitumor efficacy (in words)” value [7] was “efficacious” and the “antitumor efficacy (in words)” value ([7]; listed as CPI-1205) was “robust antitumor effects”. For the same molecule, the “time to observed tumor regression” value ([7]; 160 mg/kg po BID, female CB-17 SCID mice) was at most 2 weeks, the “G9a IC50” value (G9a) was “no inhibition or compound activity that could not be fit to an IC50 curve” and the “Cmax unbound (value in brackets)” value [8] was 120 nM. For the same molecule, the “NSD2 IC50” value (NSD2) was “no inhibition or compound activity that could not be fit to an IC50 curve”, the “Cmax unbound (value in brackets)” value [9] was 593 nM and the “SUV420H1TV2 IC50” value (SUV420H1TV2) was “no inhibition or compound activity that could not be fit to an IC50 curve”. For the same molecule, the “GLP IC50” value (GLP) was “no inhibition or compound activity that could not be fit to an IC50 curve”, the “PRDM9 IC50” value (PRDM9) was “no inhibition or compound activity that could not be fit to an IC50 curve” and the “SUV39H1 IC50” value (SUV39H1) was “no inhibition or compound activity that could not be fit to an IC50 curve”. For the same molecule, the PPB [10] was 92.8 % bound, the “SETD2 IC50” value (SETD2) was “no inhibition or compound activity that could not be fit to an IC50 curve” and the “SET8 IC50” value (SET8) was “no inhibition or compound activity that could not be fit to an IC50 curve”.
